Data: US20190021321A1, “BROAD SPECTRUM ANTIMICROBIAL & ANTICOAGULANT COMPOSITION” (priority 2016, published 2019)
Like-named read-outs stand apart in the source and are kept apart here.

How the values were obtained:
C. albicans [1] = assay: Synergy evaluation, checkerboard titration, macro-dilution; type: cell-based
Protocol: (§1) The first set of experiments conducted, were screening experiments using checkerboard titration strategy to assess if the combinations fall within a range having an Fractional Inhibitory Concentration (FIC) index value of ≤1. The method used was a NCCLS macro-dilution procedure.
(§2) The Checkerboard Titration method was used to assess the interactions between TEDTA and Ethanol. […] During this experiment, TEDTA and Ethanol were tested in the combinations to assess if the combinations have a Fractional Inhibitory Concentration (FIC) index of ≤1. The following concentrations were tested:
(§3) Fractional Inhibitory Concentration (FIC) is defined as the MIC of the compound in combination divided by the MIC of the compound alone. If the FIC index is ≤0.5, the combination is interpreted to be synergistic; <1 but >0.5—as partially synergistic; =1 as additive; >1 but <4 as indifferent; and ≥4 as antagonistic. In order to calculate the FIC index the following calculations are performed for compounds A and B:
(§4) FIC-A=(MIC of A in combination)/(MIC of A alone)
(§5) FIC-B=(MIC of B in combination)/(MIC of B alone)
(§6) FIC-combination=FIC-A+FIC-B
(§7) The following concentrations were tested:
(§8) The MIC-TEDTA (MIC of TEDTA in combination with Ethanol), a minimum concentration of TEDTA, while in combination with Ethanol, that inhibited the growth of C. albicans in MHB was found. In order to determine the MIC-Ethanol (MIC of Ethanol in combination with TEDTA), a minimum concentration of Ethanol, while in combination with TEDTA, that inhibited the growth of C. albicans in MHB was found.

P. aeruginosa [2] = assay: as above; type: cell-based
Protocol: as §1, §2, §3, §4, §5, §6, §7
as §8, with “P. aeruginosa” for “C. albicans”

S. aureus [3] = assay: Minimum inhibitory concentration (MIC) via macro-dilution method; settings: for MIC: S. aureus; for GROWTH: 24 hours, replicate columns
S. aureus [4] = assay: Synergy evaluation, checkerboard titration, macro-dilution; type: cell-based
Protocol: as §1, §2, §3, §4, §5, §6
In order to determine the MIC-Ethanol (MIC of Ethanol in combination with TEDTA), a minimum concentration of Ethanol, while in combination with TEDTA, which inhibited the growth of S. aureus in MHB was found.

C. albicans [5] = settings: for MIC: C. albicans; for GROWTH: 24 hours, replicate columns
Protocol: (§9) Experiments were conducted to assess the minimum inhibitory concentration (MIC) both for sodium salt of EDTA that comprises tetra-sodium EDTA and Ethanol. […] Clear solution indicates no growth.
(§10) The following solutions were prepared to evaluate the MIC values of sodium salt of EDTA that comprises tetra-sodium EDTA (TEDTA) and Ethanol.

P. aeruginosa [6] = settings: for MIC: P. aeruginosa; for GROWTH: 24 hours, replicate columns
Protocol: as §9, §10

[7] = up to 3000 mg infused over 3 hours, daily, treatment of hyper-calcemia in humans; cited from earlier work
S. aureus [8] = assay: Rate kill assay, plate count (Part A synergy; Part B pH and D-Mannitol effect); type: cell-based; settings: D-Mannitol 0.73 wt % alone, both at pH 7.5 & 11
Protocol: The second set of experiments conducted, were “Rate Kill” assay. […] In these assays the formulations are first exposed to organisms for a desired time (for the current formulations readings were taken at 1, 3 and 24 hours). Then a sample of the organisms and formulation mixture is serially diluted and plated to assess the log reduction. The organisms are allowed to grow and are checked for growth/log reduction after 24 hrs. The log reduction values obtained for individual components are compared with the combinations.
Each solution was then combined with S. aureus and the log reduction of the S. aureus was measured at 1, 3 and 24 hours.

C. albicans [9] = assay: as above; type: cell-based; settings: D-Mannitol 0.73 wt % alone, both at pH 7.5 & 11
Protocol: The second set of experiments conducted, were “Rate Kill” assay. A rate kill assay can confirm whether combinations are synergistic or not. In these assays the formulations are first exposed to organisms for a desired time (for the current formulations readings were taken at 1, 3 and 24 hours). Then a sample of the organisms and formulation mixture is serially diluted and plated to assess the log reduction. The organisms are allowed to grow and are checked for growth/log reduction after 24 hrs. The log reduction values obtained for individual components are compared with the combinations.
The following solutions were prepared:
Each solution was then combined with C. albicans and the log reduction of the C. albicans was measured at 1, 3 and 24 hours.

P. aeruginosa [10] = assay: as above; type: cell-based
Protocol: In these assays the formulations are first exposed to organisms for a desired time (for the current formulations readings were taken at 1, 3 and 24 hours). Then a sample of the organisms and formulation mixture is serially diluted and plated to assess the log reduction. The organisms are allowed to grow and are checked for growth/log reduction after 24 hrs. The log reduction values obtained for individual components are compared with the combinations.
Each solution was then combined with P. aeruginosa and the log reduction of the P. aeruginosa was measured at 1, 3 and 24 hours.

[11] = TEDTA 0.06 WT % individual (0.25 MIC)
[12] = TEDTA 0.12 WT % individual (0.50 MIC)
[13] = TEDTA 0.24 WT % individual (1.00 MIC)
[14] = TEDTA alone, listed as Sodium Salt(s) of EDTA
[15] = S. aureus in Mueller Hinton Broth

O=C([O-])CN(CCN(CC(=O)[O-])CC(=O)[O-])CC(=O)[O-].[Na+].[Na+].[Na+].[Na+] [TEDTA, tetra-sodium EDTA]
MIC-TEDTA (MIC of TEDTA in combination with Ethanol) (C. albicans [1]; C. albicans in MHB): 0.06 % (w/v) | FIC-TEDTA (C. albicans [1]; C. albicans, 0.06/0.24): 0.25 | GROWTH (C. albicans [1]; [11]): −VE | GROWTH (C. albicans [1]; [12]): −VE | GROWTH (C. albicans [1]; [13]): −VE | MIC-TEDTA (MIC of TEDTA in combination with Ethanol) (P. aeruginosa [2]; P. aeruginosa in MHB): 0.12 % (w/v) | FIC-TEDTA (P. aeruginosa [2]; P. aeruginosa, 0.12/0.25): 0.48 | GROWTH (P. aeruginosa [2]; TEDTA 0.06 WT % individual (0.24 MIC)): +VE | GROWTH (P. aeruginosa [2]; TEDTA 0.12 WT % individual (0.48 MIC)): +VE | GROWTH (P. aeruginosa [2]; TEDTA 0.24 WT % individual (0.96 MIC)): −VE | MIC (S. aureus [3]; [14]): 0.24 WT % | GROWTH (S. aureus [3]; TEDTA 0.015 WT %): +VE | GROWTH (S. aureus [3]; TEDTA 0.030 WT %): +VE | GROWTH (S. aureus [3]; TEDTA 0.060 WT %): +VE | GROWTH (S. aureus [3]; TEDTA 0.120 WT %): +VE | GROWTH (S. aureus [3]; TEDTA 0.240 WT %): −VE | MIC-TEDTA (MIC of TEDTA in combination with Ethanol) (S. aureus [4]; [15]): 0.06 % (w/v) | FIC-TEDTA (S. aureus [4]; S. aureus, 0.06/0.24): 0.25 | GROWTH (S. aureus [4]; [11]): +VE | GROWTH (S. aureus [4]; [12]): +VE | GROWTH (S. aureus [4]; [13]): −VE | MIC (C. albicans [5]; [14]): 0.24 WT % | GROWTH (C. albicans [5]; TEDTA 0.015 WT %): +VE | GROWTH (C. albicans [5]; TEDTA 0.030 WT %): +VE | GROWTH (C. albicans [5]; TEDTA 0.060 WT %): +VE | GROWTH (C. albicans [5]; TEDTA 0.120 WT %): +VE | GROWTH (C. albicans [5]; TEDTA 0.240 WT %): −VE | MIC (P. aeruginosa [6]; [14]): 0.24 WT % | GROWTH (P. aeruginosa [6]; TEDTA 0.125 WT %): +VE | GROWTH (P. aeruginosa [6]; TEDTA 0.250 WT %): −VE | GROWTH (P. aeruginosa [6]; TEDTA 0.500 WT %): −VE | GROWTH (P. aeruginosa [6]; TEDTA 1.000 WT %): −VE | GROWTH (P. aeruginosa [6]; TEDTA 1.500 WT %): −VE

O=C([O-])CN(CCN(CC(=O)[O-])CC(=O)O)CC(=O)O.[Na+].[Na+] [EDTA disodium]
tolerability of infused dose [7]: well tolerated

OC[C@@H](O)[C@@H](O)[C@H](O)[C@H](O)CO [D-Mannitol]
log reduction (S. aureus [8]): > 4 log | log reduction (C. albicans [9]): > 5 log | log reduction (P. aeruginosa [10]; P. aeruginosa, D-Mannitol 0.73 wt % alone, both at pH 7.5 & 11): > 5 log | LOG REDUCTION AGAINST P. aeruginosa (P. aeruginosa [10]; footnote summary, D-mannitol alone, 0.73 wt %): D-MANNITOL EXHIBITS > 5 LOG REDUCTION AGAINST P. aeruginosa.

CCO [ETHANOL, Ethanol]
MIC-Ethanol (MIC of Ethanol in combination with TEDTA) (C. albicans [1]; C. albicans in MHB): 0.781 % (v/v) | FIC-Ethanol (C. albicans [1]; C. albicans, 0.781/3.125): 0.25 | GROWTH (C. albicans [1]; ETHANOL 0.781 VOL % individual (0.25 MIC)): +VE | GROWTH (C. albicans [1]; ETHANOL 1.563 VOL % individual (0.50 MIC)): +VE | GROWTH (C. albicans [1]; ETHANOL 3.125 VOL % individual (1.00 MIC)): −VE | GROWTH (P. aeruginosa [2]; ETHANOL 1.563 VOL % individual (0.25 MIC)): +VE | GROWTH (P. aeruginosa [2]; ETHANOL 3.125 VOL % individual (0.50 MIC)): +VE | GROWTH (P. aeruginosa [2]; ETHANOL 6.250 VOL % individual (1.00 MIC)): −VE | MIC-Ethanol (MIC of Ethanol in combination with TEDTA) (P. aeruginosa [2]; P. aeruginosa in MHB): 3.125 % (v/v) | FIC-Ethanol (P. aeruginosa [2]; P. aeruginosa, 3.125/6.25): 0.5 | GROWTH (S. aureus [3]; ETHANOL 3.13 VOL %): +VE | GROWTH (S. aureus [3]; ETHANOL 6.25 VOL %): +VE | GROWTH (S. aureus [3]; ETHANOL 12.50 VOL %): +VE | GROWTH (S. aureus [3]; ETHANOL 25.00 VOL %): −VE | GROWTH (S. aureus [3]; ETHANOL 50.00 VOL %): −VE | MIC (S. aureus [3]; ethanol alone): 25 VOL % | GROWTH (S. aureus [4]; ETHANOL 6.250 VOL % individual (0.25 MIC)): +VE | GROWTH (S. aureus [4]; ETHANOL 12.500 VOL % individual (0.50 MIC)): +VE | GROWTH (S. aureus [4]; ETHANOL 25.000 VOL % individual (1.00 MIC)): −VE | MIC-ETH (MIC of Ethanol in combination with TEDTA) (S. aureus [4]; [15]): 6.25 % (w/v) | FIC-Ethanol (S. aureus [4]; S. aureus, 6.25/25): 0.25 | MIC (C. albicans [5]; ethanol alone): 3.125 VOL % | GROWTH (C. albicans [5]; ETHANOL 3.125 VOL %): −VE | GROWTH (C. albicans [5]; ETHANOL 6.25 VOL %): −VE | GROWTH (C. albicans [5]; ETHANOL 12.50 VOL %): −VE | GROWTH (C. albicans [5]; ETHANOL 25.00 VOL %): −VE | GROWTH (C. albicans [5]; ETHANOL 50.00 VOL %): −VE | GROWTH (P. aeruginosa [6]; ETHANOL 3.13 VOL %): +VE | GROWTH (P. aeruginosa [6]; ETHANOL 6.25 VOL %): −VE | GROWTH (P. aeruginosa [6]; ETHANOL 12.50 VOL %): −VE | GROWTH (P. aeruginosa [6]; ETHANOL 25.00 VOL %): −VE | GROWTH (P. aeruginosa [6]; ETHANOL 50.00 VOL %): −VE | MIC (P. aeruginosa [6]; ethanol alone): 6.25 VOL %
